Source: patent US11597724B2, “Herbicidally active 3-phenylisoxazoline-5-carboxamides of tetrahydro and dihydrofuran carboxylic acids and esters” (Bayer Aktiengesellschaft, priority 2017, dated 2023)

Key:
Format in all cases: in vivo
Echinochloa crus-galli = test: Pre-emergence herbicidal activity against ECHCG; details: dosage 80 g/ha, scored visually after about 3 weeks vs untreated controls (100% = plants have died, 0% = like control plants); for pest or weed control at 80 g/ha: Echinochloa crus-galli, 504 h
Text: (§1) 1. Pre-Emergence Herbicidal Action and Crop Plant Compatibility Seeds of monocotyledonous and dicotyledonous weed plants and crop plants are placed in plastic or wood fiber pots and covered with soil. The compounds of the invention, formulated in the form of wettable powders (WP) or as emulsion concentrates (EC), are then applied onto the surface of the covering soil as aqueous suspension or emulsion with addition of 0.5% additive at a water application rate of 600 l/ha (converted). After the treatment, the pots are placed in a greenhouse and kept under good growth conditions for the trial plants. After about 3 weeks, the effect of the preparations is scored visually in comparison with untreated controls as percentages. For example, 100% activity=the plants have died, 0% activity=like control plants. ECHCG: Echinochloa crus-galli HORMU: Hordeum murinum

Lolium rigidum = test: Pre-emergence herbicidal activity against LOLRI; details: dosage 80 g/ha; for pest or weed control at 80 g/ha: Lolium rigidum, 504 h
Text: as §1, with “LOLRI: Lolium rigidum PHBPU: Pharbitis purpurea” for “ECHCG: Echinochloa crus-galli HORMU: Hordeum murinum”

[1] = Pre-emergence treatment, summary over harmful plants; details: 504 h, application rate of 0.08 kg of active substance or less per hectare, read-out: herbicidal action, pre-emergence treatment (very good activity)
Text: 1. Pre-Emergence Herbicidal Action and Crop Plant Compatibility
as §1, with “Seeds” for “1. Pre-Emergence Herbicidal Action and Crop Plant Compatibility Seeds”, “plants.” for “plants. ECHCG: Echinochloa crus-galli HORMU: Hordeum murinum”
As shown by the results, compounds according to the invention such as, for example, the compounds No. I-21 and other compounds from the tables (for example I-10, I-26, I-09, I-30, I-28, I-29, I-27, I-01, I-06, I-34, I-19, I-11, I-36, I-37, I-38, I-41, I-42, I-43, I-44, I-46, I-49) have, when used for pre-emergence treatment, very good activity (80% to 100% herbicidal action) against harmful plants such as Abutilon theophrasti, Alopecurus myosuroides, Amaranthus retroflexus, Avena fatua, Echinochloa crus-galli, Hordeum murinum, Lolium rigidum, Pharbitis purpurea, Polygonum convolvulus, Setaria viridis, Stellaria media, Veronica persica and Viola tricolor at an application rate of 0.08 kg of active substance or less per hectare.

SMILES | pest or weed control at 80 g/ha (Echinochloa crus-galli) | pest or weed control at 80 g/ha (Lolium rigidum) | pest or weed control at 80 g/ha [1] | Pre-emergence herbicidal activity against ECHCG in % (Echinochloa crus-galli) | Pre-emergence herbicidal activity against LOLRI in % (Lolium rigidum)
C=C[C@]1(C(=O)N[C@H]2CO[C@@H](C(=O)OCC)C2)CC(c2cc(F)cc(F)c2)=NO1 (mixture of isomers) [I-35, ethyl cis-4-[[(5S)-3-(3,5-difluorophenyl)-5-vinyl-4H-isoxazole-5-carbonyl]amino]tetrahydrofuran-2-carboxylate] | 100% | 100% | – | – | –
C=C[C@]1(C(=O)N[C@H]2CO[C@@H](C(=O)OC(C)C)C2)CC(c2cc(F)cc(F)c2)=NO1 (mixture of isomers) [I-36, isopropyl cis-4-[[(5S)-3-(3,5-difluorophenyl)-5-vinyl-4H-isoxazole-5-carbonyl]amino]tetrahydrofuran-2-carboxylate] | 100% | 100% | 80 to 100% | – | –
C=C[C@]1(C(=O)N[C@H]2CO[C@@H](C(=O)OCc3ccccc3)C2)CC(c2cc(F)cc(F)c2)=NO1 (mixture of isomers) [I-37, benzyl cis-4-[[(5S)-3-(3,5-difluorophenyl)-5-vinyl-4H-isoxazole-5-carbonyl]amino]tetrahydrofuran-2-carboxylate] | 90% | 100% | 80 to 100% | – | –
C=C[C@]1(C(=O)N[C@H]2CO[C@@H](C(=O)OC(C)(C)C)C2)CC(c2cc(F)cc(F)c2)=NO1 (mixture of isomers) [I-38, tert-butyl cis-4-[[(5S)-3-(3,5-difluorophenyl)-5-vinyl-4H-isoxazole-5-carbonyl]amino]tetrahydrofuran-2-carboxylate] | 100% | 100% | 80 to 100% | – | –
CC1(C(=O)NC2COC(C(=O)O)C2)CC(c2cc(F)cc(F)c2)=NO1 (mixture of isomers) [I-41] | – | – | – | 100% | 100%
CC(C)(C)OC(=O)C1CC(NC(=O)C2(C)CC(c3cc(F)cc(F)c3)=NO2)CO1 (mixture of isomers) [I-42] | – | – | – | 100% | 100%
CCOC(=O)C1CC(NC(=O)C2(C)CC(c3cc(F)cc(F)c3)=NO2)CO1 (mixture of isomers) [I-43] | – | – | – | 100% | 100%
CC1(C(=O)NC2COC(C(=O)OCc3ccccc3)C2)CC(c2cc(F)cc(F)c2)=NO1 (mixture of isomers) [I-45] | – | – | – | 100% | 100%
COC(=O)C1CC(NC(=O)C2(C)CC(c3cc(F)cc(F)c3)=NO2)CO1 (mixture of isomers) [I-48] | – | – | – | 90% | 100%
CCOC(=O)[C@H]1C[C@@H](NC(=O)C2(C)CC(c3cccc(F)c3)=NO2)CO1 (mixture of isomers) [I-30, ethyl cis-4-[[(5RS)-3-(3-fluorophenyl)-5-methyl-4H-isoxazole-5-carbonyl]amino]tetrahydrofuran-2-carboxylate] | – | 100% | 80 to 100% | – | –
CC(C)OC(=O)[C@H]1C[C@@H](NC(=O)C2(C)CC(c3cccc(F)c3)=NO2)CO1 (mixture of isomers) [I-32, isopropyl cis-4-[[(5RS)-3-(3-fluorophenyl)-5-methyl-4H-isoxazole-5-carbonyl]amino]tetrahydrofuran-2-carboxylate] | – | 100% | – | – | –
CC1(C(=O)N[C@H]2CO[C@@H](C(=O)OCc3ccccc3)C2)CC(c2cccc(F)c2)=NO1 (mixture of isomers) [I-34, benzyl cis-4-[[(5RS)-3-(3-fluorophenyl)-5-methyl-4H-isoxazole-5-carbonyl]amino]tetrahydrofuran-2-carboxylate] | 80% | 100% | 80 to 100% | – | –
COC(=O)[C@H]1C[C@@H](NC(=O)C2(C)CC(c3cc(F)cc(F)c3)=NO2)CO1 (relative stereo) [I-01, methyl cis-4-[[3-(3,5-difluorophenyl)-5-methyl-4H-isoxazole-5-carbonyl]amino]tetrahydrofuran-2-carboxylate] | 80% | – | 80 to 100% | – | –
C=CC1(C(=O)N[C@H]2CO[C@@H](C(=O)O)C2)CC(c2cc(F)cc(F)c2)=NO1 (relative stereo) [I-21, cis-4-[[3-(3,5-difluorophenyl)-5-vinyl-4H-isoxazole-5-carbonyl]amino]tetrahydrofuran-2-carboxylic acid] | 100% | – | 80 to 100% | – | –
C=C[C@]1(C(=O)N[C@H]2CO[C@@H](C(=O)OC)C2)CC(c2cc(F)cc(F)c2)=NO1 (single isomer, unassigned) [I-12] | 90% | 100% | – | – | –
COC(=O)C1COCC1NC(=O)C1(C)CC(c2cc(F)cc(F)c2)=NO1 (stereo not drawn) [I-19, methyl 4-[[3-(3,5-difluorophenyl)-5-methyl-4H-isoxazole-5-carbonyl]amino]tetrahydrofuran-3-carboxylate] | – | – | 80 to 100% | – | –
C=C[C@]1(C(=O)NC2COCC2C(=O)OC)CC(c2cc(F)cc(F)c2)=NO1 (stereo partly drawn) [I-26, methyl 4-[[(5S)-3-(3,5-difluorophenyl)-5-vinyl-4H-isoxazole-5-carbonyl]amino]tetrahydrofuran-3-carboxylate] | 90% | – | 80 to 100% | – | –
COC(=O)C1COCC1NC(=O)C1(OC)CC(c2cc(F)cc(F)c2)=NO1 (stereo not drawn) [I-27, methyl 4-[[3-(3,5-difluorophenyl)-5-methoxy-4H-isoxazole-5-carbonyl]amino]tetrahydrofuran-3-carboxylate] | – | – | 80 to 100% | – | –
COC(=O)C1COCC1NC(=O)[C@@]1(C)CC(c2cc(F)cc(F)c2)=NO1 (stereo partly drawn) [I-28, methyl 4-[[(5R)-3-(3,5-difluorophenyl)-5-methyl-4H-isoxazole-5-carbonyl]amino]tetrahydrofuran-3-carboxylate] | 90% | – | 80 to 100% | – | –
COC(=O)C1COCC1NC(=O)C1(OC)CC(c2cc(Cl)cc(Cl)c2)=NO1 (stereo not drawn) [I-29, methyl 4-[[3-(3,5-dichlorophenyl)-5-methoxy-4H-isoxazole-5-carbonyl]amino]tetrahydrofuran-3-carboxylate] | – | – | 80 to 100% | – | –
COC(=O)C1=C[C@H](NC(=O)C2(C)CC(c3cccc(F)c3)=NO2)CO1 (stereo partly drawn) [I-39, methyl (3S)-3-[[3-(3-fluorophenyl)-5-methyl-4H-isoxazole-5-carbonyl]amino]-2,3-dihydrofuran-5-carboxylate] | – | 100% | – | – | –
CC(C)OC(=O)C1CC(NC(=O)C2(C)CC(c3cc(F)cc(F)c3)=NO2)CO1 (stereo not drawn) [I-44] | – | – | – | 90% | 100%
COC(=O)C1=C[C@@H](NC(=O)C2(C)CC(c3cccc(F)c3)=NO2)CO1 (stereo partly drawn) [I-46, methyl (3R)-3-[[3-(3-fluorophenyl)-5-methyl-4H-isoxazole-5-carbonyl]amino]-2,3-dihydrofuran-5-carboxylate] | 90% | 100% | 80 to 100% | – | –
COC(=O)C1CC(NC(=O)C2(C(C)(F)F)CC(c3cc(F)cc(F)c3)=NO2)CO1 (stereo not drawn) [I-49] | – | – | – | 100% | 100%
